≈ marks a conversion by molar mass, not a printed value. Read-outs that look alike come from different tables or passages of the source.
What was measured:
[1] = system: C. albicans ATCC10231; assay: Broth microdilution antimicrobial assay (MIC/MMC); type: cell-based, Candida albicans; conditions: for MIC: 37 °C, 48 h; for MMC: no growth after sub-culturing
Experimental: (§1) The microorganisms used in this study include four bacterial (Staphylococcus aureus ATCC25923, methicillin sensitive S. aureus MSSA1, methicillin resistant S. aureus MRSA3 and methicillin resistant S. aureus MRSA4) and three yeast strains (Candida albicans ATCC10231, Candida tropicalis PK233 and Cryptococcus neoformans H99). These microorganisms were taken from our laboratory collection. The fungal and bacterial strains were grown at 37 °C and maintained on Sabouraud Dextrose Agar (SDA, Conda, Madrid, Spain) and nutrient agar (NA, Conda) slants respectively.
(§2) The inocula of bacteria and yeasts were prepared from overnight cultures as previously described. Absorbance was read spectrophotometrically at 530 nm and 600 nm for yeasts and bacteria respectively. The final concentrations of microbial suspensions were 2.5 × 10^5 cells/mL for yeasts and 10^6 CFU/mL for bacteria.
(§3) The antimicrobial activity was evaluated by determining the minimum inhibitory concentrations (MICs). MICs of extracts and compounds were determined by broth micro dilution. Each test sample was dissolved in 10% v/v aqueous dimethylsulfoxide (DMSO) to give a stock solution. This was serially diluted two-fold in Mueller-Hinton Broth (MHB) for bacteria and Sabouraud Dextrose Broth (SDB) for fungi to obtain a concentration range of 4096 to 0.25 μg/mL. Then, 100 μL of each sample concentration was added to respective wells (96-well micro plate) containing 90 μL of SDB/ MHB and 10 μL of inoculum to give final concentration ranges of 2048 to 4 μg/mL (for extracts) and 256 to 0.125 μg/mL (for compounds). Dilutions of nystatin (Sigma-Aldrich, Steinheim, Germany) and ciprofloxacin (Sigma-Aldrich, Steinheim, Germany) were used as positive controls for yeasts and bacteria respectively. Broth with 10 μL of DMSO was used as negative control. The cultured micro plates were covered; then, the contents of each well were mixed thoroughly using a plate shaker (Flow Laboratory, Germany) and incubated at 37 °C for 24 h (bacteria) and 48 h (yeasts) under shaking. After the incubation period, MICs were assessed visually and were taken as the lowest sample concentration at which there was no growth or virtually no growth. The lowest concentration that yielded no growth after the sub-culturing was considered as the minimum microbicidal concentrations (MMCs). All the tests were performed in triplicate.

[2] = system: C. tropicalis PK233; assay: Broth microdilution antimicrobial assay (MIC/MMC); type: cell-based, Candida tropicalis; conditions: for MIC: 37 °C; for MIC / MFC: 48 h
Experimental: as §1, §2, §3

[3] = system: C. neoformans H99; assay: Broth microdilution antimicrobial assay (MIC/MMC); type: cell-based, Cryptococcus neoformans; conditions: for MIC: 37 °C; for MIC / MFC: 48 h
Experimental: as §1, §2, §3

[4] = system: S. aureus ATCC25923; assay: Broth microdilution antimicrobial assay (MIC/MMC); type: cell-based, Staphylococcus aureus; conditions: for MIC / MBC: Staphylococcus aureus, 24 h; for MIC: 37 °C; for MBC: no growth after sub-culturing
Experimental: as §1, §2, §3

[5] = system: S. aureus MRSA3; assay: Broth microdilution antimicrobial assay (MIC/MMC); type: cell-based, Staphylococcus aureus; conditions: S. aureus MRSA3; for MBC / MIC: Staphylococcus aureus, 24 h; for MBC: no growth after sub-culturing; for MIC: 37 °C
Experimental: as §1, §2, §3

[6] = system: S. aureus MRSA4; assay: Broth microdilution antimicrobial assay (MIC/MMC); type: cell-based, Staphylococcus aureus; conditions: S. aureus MRSA4; for MBC / MIC: Staphylococcus aureus, 24 h; for MBC: no growth after sub-culturing; for MIC: 37 °C
Experimental: as §1, §2, §3

[7] = system: S. aureus MSSA1; assay: Broth microdilution antimicrobial assay (MIC/MMC); type: cell-based, Staphylococcus aureus; conditions: for MIC / MBC: Staphylococcus aureus, 24 h; for MIC: 37 °C; for MBC: no growth after sub-culturing
Experimental: as §1, §2, §3

[8] = Ferric reducing antioxidant power (FRAP) assay; conditions: Perl's Prussian blue at 700 nm; Fig. 2; BHT positive control
Experimental: The FRAP was determined by the Fe^3+-Fe^2+ transformation in the presence of extracts and compounds as previously described. The Fe^2+ was monitored by measuring the formation of Perl’s Prussian blue at 700 nm. Butylated hydroxytoluene (BHT) was used as a positive control. All the tests were performed in triplicate.

[9] = DPPH free radical scavenging assay; conditions: Fig. 3; vitamin C standard
Experimental: The free radical scavenging activity of extracts and compounds was evaluated according to described methods. The EC50 (μg/ml), which is the amount of sample necessary to inhibit by 50% the absorbance of free radical DPPH was calculated. Vitamin C was used as a standard control. All the analyses were carried out in triplicate.

[10] = system: bacterial and fungal strains; assay: Broth microdilution MIC, range over all tested strains; type: cell-based; conditions: range over all bacterial and fungal strains; read-out: MIC
Experimental: as §1, §2, §3

[11] = Candida albicans, read-out: MIC
[12] = Candida tropicalis, read-out: MIC
[13] = Candida tropicalis, no growth after sub-culturing
[14] = Cryptococcus neoformans, read-out: MIC
[15] = Cryptococcus neoformans, no growth after sub-culturing

Structure (SMILES) | MMC/MIC [2] | MMC/MIC [3] | MIC [4] [µg/mL] | MIC [5] [µg/mL] | MIC [6] [µg/mL] | MIC [7] [µg/mL] | MIC [1, 11] [µg/mL] | MIC [2, 12] [µg/mL] | MIC [3, 14] [µg/mL] | MMC/MIC [4] | MMC/MIC [1] | MMC [1] [µg/mL] | MBC [4] [µg/mL] | MBC [5] [µg/mL] | MBC [6] [µg/mL] | MBC [7] [µg/mL] | MFC [2, 13] [µg/mL] | MFC [3, 15] [µg/mL] | reducing power (FRAP, in words) [8] | DPPH radical-scavenging activity (in words) [9] | other results
C[C@@H]1[C@H](O)[C@@H](C)/C=C/C=C/CC/C=C/C=C/C=C/C=C/C(O[C@H]2O[C@H](C)[C@@H](O)[C@H](N)[C@@H]2O)CC2O[C@](O)(CC(O)C(O)CCC(O)CC(O)CC(O)CC(=O)O[C@H]1C)CC(O)C2C(=O)O (stereo partly shown) [nystatin, reference compound] | 2 | 1 | – | – | – | – | – | – | – | – | 1 | 2 | – | – | – | – | – | – | – | – | MIC [1]: 2 µg/mL (≈ 2.16 µM); MIC [2]: 0.5 µg/mL (≈ 0.54 µM); MMC ([2]; no growth after sub-culturing): 1 µg/mL; MIC [3]: 1 µg/mL (≈ 1.08 µM); MMC ([3]; no growth after sub-culturing): 1 µg/mL
COC(=O)c1cc(O)c(O)c(O)c1-c1c(C(=O)OC)cc(O)c(O)c1O [Compound 8, dimethyl 4,4′,5,5′,6,6′-hexahydroxybiphenyl-2,2′-dicarboxylate] | 1 | 1 | 32 (≈ 87.4 µM) | 64 (≈ 175 µM) | 128 (≈ 349 µM) | 32 (≈ 87.4 µM) | 128 (≈ 349 µM) | 16 (≈ 43.7 µM) | 32 (≈ 87.4 µM) | 2 | – | > 256 | 64 (≈ 175 µM) | 128 (≈ 349 µM) | 256 (≈ 699 µM) | 32 (≈ 87.4 µM) | 16 (≈ 43.7 µM) | 32 (≈ 87.4 µM) | highest reducing power | lowest EC50 | MMC/MIC [5]: 2; MMC/MIC [6]: 2; MMC/MIC [7]: 1; MIC [10]: 8 to 128 µg/mL (≈ 21.8 to 349 µM)
O=C(C=Cc1ccc(O)cc1)OCC1OC(Oc2c(-c3ccc(O)cc3)oc3cc(O)cc(O)c3c2=O)C(O)C(O)C1O (stereo not drawn) [Compound 6, trans-tiliroside] | 1 | 2 | 32 (≈ 53.8 µM) | 64 (≈ 108 µM) | 128 (≈ 215 µM) | 64 (≈ 108 µM) | 64 (≈ 108 µM) | 64 (≈ 108 µM) | 64 (≈ 108 µM) | 2 | 1 | 64 | 64 (≈ 108 µM) | 128 (≈ 215 µM) | 128 (≈ 215 µM) | 64 (≈ 108 µM) | 64 (≈ 108 µM) | 128 (≈ 215 µM) | – | – | MMC/MIC [5]: 2; MMC/MIC [6]: 1; MMC/MIC [7]: 1; MIC [10]: 32 to 128 µg/mL (≈ 53.8 to 215 µM)

Continued, in another order:

MMC/MIC [2] | MMC/MIC [3] | MIC [4] [µg/mL] | MIC [5] [µg/mL] | MIC [6] [µg/mL] | MIC [7] [µg/mL] | MIC [1, 11] [µg/mL] | MIC [2, 12] [µg/mL] | MIC [3, 14] [µg/mL] | MMC/MIC [4] | Structure (SMILES) | MMC/MIC [1] | MMC [1] [µg/mL] | MBC [4] [µg/mL] | MBC [5] [µg/mL] | MBC [6] [µg/mL] | MBC [7] [µg/mL] | MFC [2, 13] [µg/mL] | MFC [3, 15] [µg/mL] | reducing power (FRAP, in words) [8] | DPPH radical-scavenging activity (in words) [9] | other results
– | – | 256 (≈ 600 µM) | > 256 | > 256 | 256 (≈ 600 µM) | > 256 | 256 (≈ 600 µM) | 256 (≈ 600 µM) | – | C=C(C)[C@@H]1CC[C@]2(C)CC[C@]3(C)[C@H](CC[C@@H]4[C@@]5(C)CC[C@H](O)C(C)(C)[C@@H]5CC[C@]43C)[C@@H]12 [Compound 9, lupeol] | – | – | > 256 | > 256 | > 256 | > 256 | > 256 | > 256 | not active | not active | –
– | – | > 256 | > 256 | > 256 | > 256 | 256 (≈ 444 µM) | 256 (≈ 444 µM) | 128 (≈ 222 µM) | – | CC[C@H](CC[C@@H](C)[C@H]1CCC2C3CC=C4C[C@@H](O[C@@H]5O[C@H](CO)[C@@H](O)[C@H](O)[C@H]5O)CC[C@]4(C)C3CC[C@@]21C)C(C)C (stereo partly drawn) [Compound 4, sitosterol-3-O-β-D-glucopyranoside] | – | > 256 | > 256 | > 256 | > 256 | > 256 | > 256 | > 256 | not active | not active | –

Source: publication PMC5956543, “Antimicrobial and antioxidant activities of triterpenoid and phenolic derivatives from two Cameroonian Melastomataceae plants: Dissotis senegambiensis and Amphiblemma monticola” (BMC Complementary and Alternative Medicine, 2018)
